Data set [1] is described as follows: Chemical stability in solution and on storage. In kind it is physicochemical. The protocol: FIG. 5 depicts the synthesis of m2^7,2′-OGppSepG. The selenophosphate (PSeO3^−3) was prepared by a modification of the method described in R. Glass et al., “Selenophosphate,” Meth. Enzymol., vol. 252, pp. 309-315 (1995). Trimethylsilyl phosphite was treated with selenium in pyridine to give trimethylsilyl selenophosphate, which was then desilylated by methanol in the presence of triethylamine to give the selenophosphate triethylammonium salt. This compound was coupled with the imidazolide derivative of 7,2′-O-dimethylguanosine 5′-monophosphate (m2^7,2′-OGMP-Im) to give 7,2′-O-dimethylguanosine 5′-O-(2-selenodiphosphate) (m2^7,2′-OGDPβSe). […] The reaction was very rapid; essentially 100% conversion of m2^7,2′-OGMP-Im into m2^7,2′-OGDPβSe was observed by RP HPLC after 15 min. […] Thus, care was taken to maintain the pH at 7 or above during purification of m2^7,2′-OGDPβSe, which allowed the product to be isolated with 80% yield after ion-exchange chromatography. The m2^7,2′-OGDPβSe was then coupled with the imidazolide derivative of GMP in the presence of excess ZnCl2. Two peaks were observed by RP HPLC, corresponding to two m2^7,2′-OGppSepG diastereomers, which were designated D1 and D2 according to their elution order. However, the coupling proceeded slowly, and complete disappearance of m2^7,2′-OGDPβSe took about two days. The extended reaction time allowed partial hydrolysis of m2^7,2′-OGDPβSe to m2^7,2′-OGMP, and only a moderate reaction yield (40% conversion by HPLC, 25% isolated). The diastereomeric mixture of m2^7,2′-OGppSepG after isolation by ion-exchange chromatography was successfully resolved into pure diastereomers by RP HPLC. The products were characterized by mass spectrometry, ^1H NMR, and ^31P NMR to confirm structures and homogeneity.

Data set [2] concerns the target eIF4E (Mus musculus, UniProt P63073). Kind of data set: Binding affinity of cap analogs to eIF4E by fluorescence titration. The settings on record: equilibrium association constant; for Cap analog-eIF4E affinity (KAS): Table 3; for Cap analog/eIF4E affinity (KAS): 20 °C, pH 7.2, ionic strength 150 mM. The method in brief:
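Cap analogue was titrated into 0.1 or 0.2 μM eIF4E at 20.0° C, in 50 mM HEPES/KOH pH 7.2 with 0.5 mM EDTA and 1 mM DTT, ionic strength 150 mM (KCl). Fluorescence quenching was read at excitation 280 or 295 nm and emission 337 nm, corrected for dilution and inner filter. Kas is a weighted average of 3–10 titration fits.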

Data set [3] relates to rabbit reticulocyte lysate system. Kind of data set: In vitro translation efficiency of capped luciferase mRNA, method I transcripts. In kind it is biochemical. The settings on record: for Translation efficiency in comparison with m^7GpppG-LUC mRNA, Experiment No. 2: experiment 2; for Translation efficiency in comparison with m^7GpppG-LUC mRNA, Experiment No. 3: experiment 3; for Translation efficiency in comparison with m^7GpppG-LUC mRNA, Experiment No. 4: experiment 4; for Translation efficiency in comparison with m^7GpppG-LUC mRNA, Mean: mean of experiments; for In vitro translational efficiency, method I: relative to m^7GpppG-capped luciferase mRNA = 1.0. The protocol:
A DNA template for in vitro transcription was synthesized by PCR from the plasmid SP6p-5′UTR β-globin-LUCiferase. The template contained the SP6 promoter followed by the 5′-UTR sequence of rabbit β-globin mRNA and the entire firefly luciferase mRNA coding region. A typical in vitro transcription reaction mixture (50 μl) contained SP6 transcription buffer (Fermentas, cat. no. EP0131), 2 μg of DNA template, 2 U/μl RiboLock Ribonuclease Inhibitor (Fermentas), 2 mM each of ATP, CTP, and UTP, 0.1 mM GTP, and 1 mM dinucleotide cap analog. The reaction mixture was incubated at 37° C. for 5 min before the addition of SP6 RNA polymerase (Fermentas) to a final concentration of 2 U/μl. After 30 min of incubation at 37° C., GTP was added to a final concentration of 1 mM, and the reaction continued for an additional 90 min. The reaction mixtures were then treated with 1 U of DNase RQ1 (RNAse-free, Promega) per μg of template DNA in transcription buffer at 37° C. for 20 min. RNA transcripts were purified on DEPC-treated Sephadex G-50 spin columns (Pharmacia). The integrity of transcripts was confirmed by electrophoresis on a non-denaturating, 1% agarose gel. Concentrations were determined spectrophotometrically. The transcripts were stored at −80° C. until used.
A micrococcal nuclease-treated rabbit reticulocyte lysate system (Flexi Rabbit Reticulocyte Lysate System, Promega) was used for in vitro translation. Translation reactions were performed in 10 μl for 60 min at 30° C. A typical reaction mixture contained 40% reticulocyte lysate, the 20 “standard” amino acids (0.01 mM each), MgCl2 (1.2 mM), potassium acetate (170 mM), and mRNA (five different concentrations of each transcript, ranging from 0.25 to 4 μg/ml). Luciferase activity was measured in a luminometer (Glomax, Promega). Linear regression was used to fit the data points (luciferase activity versus concentration of mRNA transcript), and translational efficiency was defined as the slope of this line. The relative translational efficiencies of the test mRNAs were compared to that of m^7GpppG-capped luciferase mRNA, the latter being defined as 1.0.

Chain of eIF4E (P63073 28-217 limits assumed): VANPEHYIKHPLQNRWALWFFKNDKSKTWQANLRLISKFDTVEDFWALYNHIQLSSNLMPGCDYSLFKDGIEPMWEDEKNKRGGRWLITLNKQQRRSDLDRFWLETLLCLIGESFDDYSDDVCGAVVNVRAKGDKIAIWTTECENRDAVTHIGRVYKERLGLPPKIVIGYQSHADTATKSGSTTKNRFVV

On to `CO[C@@H]1[C@H](O)[C@@H](COP(=O)(O)OP(O)(=[Se])OP(=O)(O)OC[C@H]2O[C@@H](n3cnc4c(=O)[nH]c(N)nc43)[C@H](O)[C@@H]2O)O[C@H]1n1c[n+](C)c2c(=O)[nH]c(N)nc21` (single isomer, unassigned) [m2^7,2′-OGppSepG (D1), m2^7,2′-OGppSepG], for which the “Stability in aqueous solution” value in data set [1] is recorded as “stable in aqueous solution”. Further, the “Cap analog-eIF4E affinity (KAS)” value in data set [2] came to 38.5 ± 0.7 μM^−1.
For the molecule `CO[C@@H]1[C@H](O)[C@@H](COP(=O)(O)OP(O)(=[Se])OP(=O)(O)OC[C@H]2O[C@@H](n3cnc4c(=O)[nH]c(N)nc43)[C@H](O)[C@@H]2O)O[C@H]1n1c[n+](C)c2c(=O)[nH]c(N)nc21` (single isomer, unassigned) [m2^7,2′-OGppSepG (D2), m2^7,2′-OGppSepG], the “Stability in aqueous solution” value in data set [1] is given as “stable in aqueous solution”. The “Cap analog-eIF4E affinity (KAS)” value in data set [2] was determined as 19.0 ± 0.5 μM^−1.
In the case of `Cn1c[n+]([C@@H]2O[C@H](COP(=O)(O)OP(=O)(O)OP(=O)(O)OC[C@H]3O[C@@H](n4cnc5c(=O)[nH]c(N)nc54)[C@H](O)[C@@H]3O)[C@@H](O)[C@H]2O)c2nc(N)[nH]c(=O)c21` [m^7GpppG, m^7G(5′)ppp(5′)G, reference compound], the “Translation efficiency in comparison with m^7GpppG-LUC mRNA, Experiment No. 1” value in data set [3] (experiment 1) turned out to be 1.00. In data set [3], the “Translation efficiency in comparison with m^7GpppG-LUC mRNA, Experiment No. 2” value turned out to be 1.00; the “Translation efficiency in comparison with m^7GpppG-LUC mRNA, Experiment No. 3” value was 1.00; the “Translation efficiency in comparison with m^7GpppG-LUC mRNA, Experiment No. 4” value is given as 1.00; the “Translation efficiency in comparison with m^7GpppG-LUC mRNA, Mean” value came to 1.00. The “In vitro translational efficiency, method I” value in data set [3] amounted to 1.00. Moreover, in data set [2], the “Cap analog-eIF4E affinity (KAS)” value was determined as 9.4 ± 0.4 μM^−1 and the “Cap analog/eIF4E affinity (KAS)” value is 9.4 ± 0.4 μM^−1.
m^7GppBH3pm^7G: in data set [3], the “Translation efficiency in comparison with m^7GpppG-LUC mRNA, Experiment No. 2” value was determined as 2.63; the “Translation efficiency in comparison with m^7GpppG-LUC mRNA, Experiment No. 3” value is reported as 2.91; the “Translation efficiency in comparison with m^7GpppG-LUC mRNA, Experiment No. 4” value came to 2.89; the “Translation efficiency in comparison with m^7GpppG-LUC mRNA, Mean” value was determined as 2.81. For the same molecule, the “In vitro translational efficiency, method I” value in data set [3] was 2.81 ± 0.16. Further, the “Cap analog/eIF4E affinity (KAS)” value in data set [2] was determined as 11.1 ± 0.2 μM^−1.

The values are drawn from patent US8519110B2, “mRNA cap analogs” (Board of Supervisors of Louisiana State University And …, priority 2008, dated 2013).
